{
  "source": "patent US5281710A",
  "about": "“Dynemicin analogs: synthesis, methods of preparation and use” (The Scripps Research Institute, priority 1992, dated 1994)",
  "key": {"M-21 melanoma cells": {"test_system": "M-21 melanoma cells", "assay": "Sulforhodamine B cytotoxicity, M-21", "assay_type": "cell-based", "conditions": "Homo sapiens, M21", "method": "(§1) In addition to the screening already discussed, several of the before-described compounds and chimeras were screened against several or all of a panel of ten to twenty-five cancerous cell lines as target cells and seven \"normal\" cell preparations. This screening utilized a sulforhodamine B cytotoxidity assay as discussed below.\n(§2) IC50 values; i.e., the concentration of Compound required to kill one-half of the treated cells, were then calculated.\nUCLA M-21 Institute, and originally obtained from […]"}, "[1]": {"test_system": "Mel-7 breast carcinoma cells", "assay": "Sulforhodamine B cytotoxicity, Mel-7 (breast carcinoma)", "assay_type": "cell-based", "conditions": "Breast carcinoma cell", "method": "as §1, §2"}, "[2]": {"test_system": "UCLA P-3 non-small cell lung carcinoma cells", "assay": "Sulforhodamine B cytotoxicity, UCLA-P3", "assay_type": "cell-based, human", "conditions": "Homo sapiens, UCLA P-3, non small cell lung P-3; read-out: IC50", "method": "as §1, §2\nUCLA P-3 Dr. D. Morton, University of California, […]"}, "RPMI-8226 cells": {"test_system": "RPMI-8226 cells", "assay": "Sulforhodamine B cytotoxicity, RPMI-8226", "assay_type": "cell-based", "conditions": "Homo sapiens", "method": "as §1, §2"}, "TCAF cell line": {"test_system": "TCAF cell line", "assay": "Cytotoxicity, TCAF", "assay_type": "cell-based", "method": "as §1, §2"}, "[3]": {"test_system": "MOLT-4 (Leukemia) cell line", "assay": "cells", "assay_type": "cell-based", "procedure,_shortened": "(§3)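 Screening panel: cancerous cell lines (ten to twenty-five) alongside seven \"normal\" preparations. Sulforhodamine B used to quantify cell kill; IC50 calculated.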"}, "SK-Mel-28 melanoma cells": {"test_system": "SK-Mel-28 melanoma cells", "assay": "Sulforhodamine B cytotoxicity, SK-Mel-28", "assay_type": "cell-based", "conditions": "Homo sapiens, SK-MEL-28, SK-Mel-28; read-out: IC50", "procedure,_shortened": "as §3"}, "Water solubility": {"assay": "Water solubility", "assay_type": "physicochemical"}, "[4]": {"test_system": "Ovcar-3 ovarian carcinoma cells", "assay": "Sulforhodamine B cytotoxicity, Ovcar-3", "assay_type": "cell-based", "conditions": "Homo sapiens, OVCAR-3, Ovcar-3; read-out: IC50", "method": "as §1, §2"}, "U-251 MG glioma cells": {"test_system": "U-251 MG glioma cells", "assay": "Sulforhodamine B cytotoxicity, U-251", "assay_type": "cell-based", "conditions": "Homo sapiens", "method": "as §1, §2"}, "[5]": {"test_system": "L-1210 mouse lymphoma cells", "assay": "Sulforhodamine B cytotoxicity, L-1210", "assay_type": "cell-based", "conditions": "L1210", "method": "as §1, §2"}},
  "data": [
    {"compound": "O=C(OCCS(=O)(=O)c1ccccc1)N1c2ccc(OCCO)cc2C23OC24CCCC3C#C/C=C\\C#CC14", "note": "(stereo not drawn) [Compound 153]", "values": [
      {"measurement": "IC50", "setting": "M-21 melanoma cells", "result": 1600, "unit": "nM"},
      {"measurement": "IC50", "setting": "[1]", "result": 780, "unit": "nM"},
      {"measurement": "IC50", "setting": "[2]", "result": 98, "unit": "nM"},
      {"measurement": "IC50", "setting": "RPMI-8226 cells", "result": 7.7, "unit": "nM"},
      {"measurement": "IC50", "setting": "TCAF cell line", "result": 1.1, "unit": "nM"},
      {"measurement": "viability at 0.01 µM", "setting": "[3]; Homo sapiens, 72 h, 10^-8 M, Molt-4 tumor cells", "result": 20, "unit": "%"},
      {"measurement": "relative potency (qualitative)", "setting": "[3]; Molt-4", "result": "highest potency amongst all of the agents assayed against the Molt-4 leukemia cell line"},
      {"measurement": "IC50", "setting": "SK-Mel-28 melanoma cells", "result": 3100, "unit": "nM"},
      {"measurement": "water solubility", "setting": "Water solubility", "result": "increased solubility of Compound 153 in water compared to the other enediyne compounds"},
      {"measurement": "IC50", "setting": "[4]", "result": 780, "unit": "nM"},
      {"measurement": "IC50", "setting": "U-251 MG glioma cells", "result": 390, "unit": "nM"},
      {"measurement": "IC50", "setting": "[5]", "result": 1.3, "unit": "nM"}
    ]}
  ]
}
